Test results published in the supplement of paper PMC10307832.

What was measured:
Experiment in all cases: relative viability (nuclei count vs DMSO), 5 days (fraction); higher = more cells survive
DM3189 + Alpelisib = compound: C1CN(CCN1)C2=CC=C(C=C2)C3=CN4C(=C(C=N4)C5=CC=NC6=CC=CC=C56)N=C3 [DM3189] + Cc1nc(NC(=O)N2CCC[C@H]2C(N)=O)sc1-c1ccnc(C(C)(C)C(F)(F)F)c1 [Alpelisib] (partner 2 µM)
Outline: (§1)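 Dosing by pin tool came one day after lung cancer cell lines were seeded in 1536-well plates, using either one drug or a fixed anchor-drug dose plus five library-drug doses (not always all listed) in √10 steps. After 5 days, nuclei were counted on 4× images. Relative viability is treated-well nuclei count divided by vehicle-well nuclei count, and values are medians of duplicate plates.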

DM3189 + Pemetrexed = compound: C1CN(CCN1)C2=CC=C(C=C2)C3=CN4C(=C(C=N4)C5=CC=NC6=CC=CC=C56)N=C3 [DM3189] + Nc1nc2[nH]cc(CCc3ccc(C(=O)N[C@@H](CCC(=O)O)C(=O)O)cc3)c2c(=O)[nH]1 [Pemetrexed] (partner 0.2 µM)
Outline: as §1

DM3189 + Decitabine = compound: C1CN(CCN1)C2=CC=C(C=C2)C3=CN4C(=C(C=N4)C5=CC=NC6=CC=CC=C56)N=C3 [DM3189] + Nc1ncn([C@H]2C[C@H](O)[C@@H](CO)O2)c(=O)n1 [Decitabine] (partner 2 µM)
Outline: as §1

DM3189 + Vorinostat = compound: C1CN(CCN1)C2=CC=C(C=C2)C3=CN4C(=C(C=N4)C5=CC=NC6=CC=CC=C56)N=C3 [DM3189] + O=C(CCCCCCC(=O)Nc1ccccc1)NO [Vorinostat] (partner 1 µM)
Outline: as §1

DM3189 + Olaparib = compound: C1CN(CCN1)C2=CC=C(C=C2)C3=CN4C(=C(C=N4)C5=CC=NC6=CC=CC=C56)N=C3 [DM3189] + O=C(c1cc(Cc2n[nH]c(=O)c3ccccc23)ccc1F)N1CCN(C(=O)C2CC2)CC1 [Olaparib] (partner 8 µM)
Outline: as §1

Cell Line	relative viability (DM3189 + Alpelisib; first compound 0.08 µM)	relative viability (DM3189 + Alpelisib; first compound 0.253 µM)	relative viability (DM3189 + Alpelisib; first compound 0.8 µM)	relative viability (DM3189 + Alpelisib; first compound 2.53 µM)	relative viability (DM3189 + Pemetrexed; first compound 0.08 µM)	relative viability (DM3189 + Pemetrexed; first compound 0.253 µM)	relative viability (DM3189 + Pemetrexed; first compound 0.8 µM)	relative viability (DM3189 + Pemetrexed; first compound 2.53 µM)	relative viability (DM3189 + Decitabine; first compound 0.08 µM)	relative viability (DM3189 + Decitabine; first compound 0.253 µM)	relative viability (DM3189 + Decitabine; first compound 0.8 µM)	relative viability (DM3189 + Decitabine; first compound 2.53 µM)	relative viability (DM3189 + Vorinostat; first compound 0.08 µM)	relative viability (DM3189 + Vorinostat; first compound 0.253 µM)	relative viability (DM3189 + Vorinostat; first compound 0.8 µM)	relative viability (DM3189 + Vorinostat; first compound 2.53 µM)	relative viability (DM3189 + Olaparib; first compound 0.08 µM)	relative viability (DM3189 + Olaparib; first compound 0.253 µM)	relative viability (DM3189 + Olaparib; first compound 0.8 µM)	relative viability (DM3189 + Olaparib; first compound 2.53 µM)
NCI-H650	1.35	1.07	0.975	0.915	1.02	0.956	0.958	0.936	0.288	0.313	0.242	0.292	0.391	0.501	0.383	0.428	0.355	0.428	0.347	0.329
NCI-H2023	0.586	0.633	0.574	0.63	0.235	0.231	0.236	0.178	0.229	0.225	0.205	0.201	0.688	0.618	0.603	0.604	0.486	0.432	0.515	0.333
EPLC-272H	0.876	1.1	0.916	0.838	0.275	0.318	0.338	0.276	0.374	0.359	0.364	0.424	0.386	0.517	0.247	0.402	0.669	0.714	0.735	0.565
NCI-H596	0.578	0.517	0.386	0.478	0.49	0.442	0.512	0.477	1.09	1.09	0.842	1.19	0.606	0.669	0.605	0.756	0.588	0.646	0.702	0.747
NCI-H3122	0.656	0.74	0.701	0.739	0.203	0.197	0.184	0.159	0.362	0.353	0.372	0.367	0.992	0.74	0.841	1.11	0.698	0.606	0.545	0.73
NCI-H2087	1.31	1.07	1.01	1.03	0.724	0.659	0.67	0.573	0.269	0.249	0.284	0.275	0.63	0.49	0.682	0.471	0.511	0.563	0.505	0.316
NCI-H441	0.877	0.595	0.837	0.467	0.3	0.243	0.295	0.287	0.307	0.227	0.216	0.219	0.879	0.772	0.885	0.674	0.689	0.485	0.663	0.583
ABC-1	0.864	1.07	1.02	0.925	–	–	–	–	1.1	1.08	1.21	1.04	1.53	0.9	1.04	0.907	1.04	0.594	0.676	0.718
A549	0.892	0.806	0.812	0.956	–	–	–	–	0.26	0.282	0.251	0.325	–	–	–	–	0.286	0.332	0.236	0.29
ChaGo-K-1	–	–	–	–	0.255	0.266	0.261	0.264	0.521	0.507	0.475	0.537	0.872	0.771	0.703	0.746	0.48	0.393	0.369	0.439
NCI-H1703	0.389	0.366	0.384	0.285	–	–	–	–	–	–	–	–	–	–	–	–	0.397	0.466	0.429	0.446
NCI-H727	0.638	0.503	–	0.56	–	–	–	–	0.886	0.769	0.846	0.976	1.43	1.05	0.972	1.13	0.696	0.69	0.649	0.764
NCI-H1650	–	–	–	–	0.311	0.347	0.351	0.37	0.367	0.462	0.366	0.425	0.505	0.539	0.638	0.644	0.801	0.712	0.738	0.838
NCI-H1792	0.545	0.682	0.624	0.401	0.986	0.98	0.645	0.616	0.529	0.519	0.397	0.579	–	–	–	–	0.647	0.354	0.404	0.38
NCI-H1563	0.909	0.896	0.949	0.839	0.715	0.787	0.755	0.752	–	–	–	–	–	–	–	–	–	–	–	–
IA-LM	1.24	0.581	0.963	1.31	–	–	–	–	–	–	–	–	0.962	1.11	1.1	1.04	0.999	1.02	0.821	1.2
CAL-12T	1.42	1.14	1.41	1.43	1.2	1.06	1.09	0.921	–	–	–	–	0.683	0.785	0.878	0.743	0.713	0.618	0.681	0.803
NCI-H2228	0.683	0.79	0.513	0.211	0.365	0.315	0.361	0.226	–	–	–	–	0.541	0.773	0.593	0.279	0.88	0.669	0.492	0.51
